A short description of the first series: logP by reversed-phase HPLC (EEC Directive 79/831 Annex V.A8). The series is classed as physicochemical.
Settings: not given
As for `Cc1nnnn1/C(=N/OCc1csc(NC(=O)C(C)(C)C)n1)c1ccsc1` [Compound 18, O-(2-tert-Butylcarbonylamino-1,3-thiazol-4-yl)methyl-(thien-3-yl)-(5-methyltetrazol-1-yl)methanone oxime], the chromatographic logP (as a rule, lipophilicity estimated from chromatographic retention) turned out to be 2.94. `Cc1nnnn1/C(=N/OCc1csc(N)n1)c1ccsc1` [Compound 20, O-(2-Amino-1,3-thiazol-4-yl)methyl-(thien-3-yl)-(5-methyltetrazol-1-yl)methanone oxime] displayed a chromatographic logP of 1.32.

Staying with this series, now noted: HPLC C18, 40° C., 0.1% aqueous formic acid / acetonitrile gradient.
Regarding `Cc1nnnn1C(=NOCc1cccc(NC(=O)c2ccccc2)n1)c1ccsc1Cl` [Compound 1], the LogP (commonly the decadic logarithm of the partition coefficient of the neutral form, usually between octanol and water) is on record as 3.26. Same read-out and setting: the value for `Cc1nnnn1C(=NOCc1cccc(NC(=O)C(C)(C)C)n1)c1ccsc1Cl` [Compound 2] was 3.27; that for `CCCCCC(=O)Nc1cccc(CON=C(c2ccsc2Cl)n2nnnc2C)n1` [Compound 3] was 3.65; that for `Cc1nnnn1C(=NOCc1csc(NC(=O)c2ccccc2)n1)c1ccsc1Cl` [Compound 4] was 3.26. `Cc1nnnn1C(=NOCc1csc(NC(=O)CCCCl)n1)c1ccsc1Cl` [Compound 5]: the LogP stood at 3.

On to `C=CCC(=O)Nc1nc(CON=C(c2ccsc2Cl)n2nnnc2C)cs1` [Compound 6], for which the LogP is reported as 2.73. `Cc1nnnn1C(=NOCc1csc(NC(=O)C2CCCC2)n1)c1ccsc1Cl` [Compound 7] registered a LogP of 3.3. With `Cc1nnnn1C(=NOCc1csc(NC(=O)C2CCCCC2)n1)c1ccsc1Cl` [Compound 8], the lipophilicity (LogP) turned out to be 4.48. `Cc1nnnn1C(=NOCc1csc(NC(=O)CCc2ccccc2)n1)c1ccsc1Cl` [Compound 9] showed a LogP of 3.45. `Cc1nnnn1C(=NOCc1csc(NC(=O)Cc2ccccc2)n1)c1ccsc1Cl` [Compound 10]: the LogP was determined as 3.21.

`CCCCCCCCC(=O)Nc1nc(CON=C(c2ccsc2Cl)n2nnnc2C)cs1` [Compound 11] showed a LogP of 4.77. `Cc1nnnn1C(=NOCc1csc(NC(=O)C(C)C)n1)c1ccsc1Cl` [Compound 12] gave a LogP of 2.86. Take `CCCCCC(=O)Nc1nc(CON=C(c2ccsc2Cl)n2nnnc2C)cs1` [Compound 13]: the LogP amounted to 3.59. Molecule `Cc1nnnn1C(=NOCc1cccc(N)n1)c1ccsc1Cl` [Compound 14] showed a LogP of 1.39. `COCCOCC(=O)Nc1cccc(CON=C(c2ccsc2Cl)n2nnnc2C)n1` [Compound 15] displayed a LogP of 2.61.

Consider `CCCCCOC(=O)Nc1cccc(CON=C(c2ccsc2Cl)n2nnnc2C)n1` [Compound 16], for which the LogP is recorded as 4.19. As for `COCCOC(=O)Nc1cccc(CON=C(c2ccsc2Cl)n2nnnc2C)n1` [Compound 17], the LogP is listed as 2.66.

The molecule `Cc1nnnn1C(=NOCc1cccc(N)n1)c1ccsc1` [Compound 19] gave a LogP of 1.28. Regarding `Cc1nnnn1C(=NOCc1csc(NC(=O)Nc2ccccc2)n1)c1ccsc1` [Compound 21], the lipophilicity (LogP) was determined as 2.88.

The molecule `CCCCCNC(=O)Nc1nc(CON=C(c2ccsc2)n2nnnc2C)cs1` [Compound 22] returned a LogP of 2.99. This LogP and that of the molecule before are within 0.2 log units of each other.

The molecule `CCCCCCCCNC(=O)Nc1nc(CON=C(c2ccsc2)n2nnnc2C)cs1` [Compound 23] showed a lipophilicity (LogP) of 3.26. `Cc1nnnn1C(=NOCc1csc(NC(=O)NCCc2ccccc2)n1)c1ccsc1` [Compound 24] registered a LogP of 2.86. Same read-out and setting: the same measure for `Cc1nnnn1C(=NOCc1csc(NC(=O)NC2CCCCC2)n1)c1ccsc1` [Compound 25]: 2.92. Take `Cc1nnnn1C(=NOCc1csc(NC(=O)NC(C)C)n1)c1ccsc1` [Compound 26]: the LogP is listed as 2.32.

With `C=CCNC(=O)Nc1nc(CON=C(c2ccsc2)n2nnnc2C)cs1` [Compound 27], the log partition coefficient (LogP) stood at 2.22. Take `Cc1nnnn1C(=NOCc1csc(NC(=O)NC2CCCC2)n1)c1ccsc1` [Compound 28]: the LogP is given as 2.65. Same read-out and setting: the same measure for `Cc1nnnn1C(=NOCc1csc(NC(=O)C2CCCCC2)n1)c1ccsc1` [Compound 29]: 3.32; for `CCCCCC(=O)Nc1nc(CON=C(c2ccsc2)n2nnnc2C)cs1` [Compound 30]: 3.25. On to `Cc1nnnn1C(=NOCc1csc(NC(=O)C(C)C)n1)c1ccsc1` [Compound 31], for which the LogP turned out to be 2.55.

The molecule `Cc1nnnn1C(=NOCc1csc(NC(=O)Cc2ccccc2)n1)c1ccsc1` [Compound 32] registered a LogP of 2.9. The same measure, in the same setting: the value for `Cc1nnnn1C(=NOCc1csc(NC(=O)CCc2ccccc2)n1)c1ccsc1` [Compound 33] was 3.14.

As to `Cc1nnnn1C(=NOCc1csc(NC(=O)CCCCl)n1)c1ccsc1` [Compound 34], the LogP was determined as 2.67. Take `Cc1nnnn1C(=NOCc1csc(NC(=O)c2ccccc2)n1)c1ccsc1` [Compound 35]: the LogP was 2.93. In the case of `CCCCCC(=O)Nc1cccc(CON=C(c2ccsc2)n2nnnc2C)n1` [Compound 36], the LogP was determined as 3.39.

Take `Cc1nnnn1C(=NOCc1cccc(NC(=O)C(C)(C)C)n1)c1ccsc1` [Compound 37]: the LogP is 3. The molecule `Cc1nnnn1C(=NOCc1cccc(NC(=O)c2ccccc2)n1)c1ccsc1` [Compound 38] showed a log partition coefficient (LogP) of 3.01. Take `Cc1nnnn1C(=NOCc1csc(NC(=O)C2CCCC2)n1)c1ccsc1` [Compound 39]: the LogP turned out to be 3.05. On the same count and under the same terms, the value for `C=CCC(=O)Nc1nc(CON=C(c2ccsc2)n2nnnc2C)cs1` [Compound 40] was 2.51; that for `CCCCCCCCC(=O)Nc1nc(CON=C(c2ccsc2)n2nnnc2C)cs1` [Compound 41] was 4.51.

With `CCc1nnnn1C(=NOCc1csc(NC(=O)C(C)(C)C)n1)c1ccsc1` [Compound 42], the LogP was found to be 3.35. Regarding `CCc1nnnn1C(=NOCc1csc(NC(=O)C(C)C)n1)c1ccsc1` [Compound 43], the LogP worked out at 3.04. `Cc1nnnn1C(=NOCc1csc(NC(=O)OCCc2ccccc2)n1)c1ccsc1` [Compound 44] came in with a lipophilicity (LogP) of 3.46.

For the molecule `Cc1nnnn1C(=NOCc1csc(NC(=O)CCCc2ccccc2)n1)c1ccsc1` [Compound 45], the LogP is 3.49. `Cc1nnnn1C(=NOCc1csc(NC(=O)OCc2ccccc2)n1)c1ccsc1` [Compound 46] came in with a LogP of 3.24.

In the case of `Cc1nnnn1C(=NOCc1csc(NC(=S)NCCc2ccccc2)n1)c1ccsc1` [Compound 47], the LogP was determined as 3.65.

`COCCOCC(=O)Nc1nc(CON=C(c2ccsc2)n2nnnc2C)cs1` [Compound 48] registered a log partition coefficient (LogP) of 2.28. For the molecule `COCCOC(=O)Nc1nc(CON=C(c2ccsc2)n2nnnc2C)cs1` [Compound 49], the LogP was determined as 2.3. On to `Cc1nnnn1C(=NOCCc1csc(N)n1)c1ccsc1` [Compound 50], for which the LogP is recorded as 1.16. Molecule `Cc1nnnn1C(=NOCCc1csc(NC(=O)C(C)(C)C)n1)c1ccsc1` [Compound 51] yielded a LogP of 3.19.

`Cc1nnnn1C(=NOCc1csc(NC(=O)C(C)(C)C)n1)c1ccc(-c2ccccc2)s1` [Compound 53] gave a LogP of 4.24. As to `Cc1nnnn1C(=NOCc1csc(NC(=O)Cc2ccccc2)n1)c1ccc(-c2ccccc2)s1` [Compound 54], the LogP was 4.08. Same read-out and setting: the same measure for `Cc1nnnn1C(=NOCc1csc(NC(=O)C2CC2)n1)c1ccc(-c2ccccc2)s1` [Compound 55]: 3.7; for `CCCC(=O)Nc1nc(CON=C(c2ccc(-c3ccccc3)s2)n2nnnc2C)cs1` [Compound 56]: 3.87.

Molecule `CCCCCC(=O)Nc1nc(CON=C(c2ccc(-c3ccccc3)s2)n2nnnc2C)cs1` [Compound 57] gave a LogP of 4.58. Same read-out and setting: the same measure for `Cc1ccc(C(=NOCc2csc(N)n2)n2nnnc2C)o1` [Compound 58]: 1.47; for `Cc1ccc(C(=NOCc2csc(NC(=O)C(C)(C)C)n2)n2nnnc2C)o1` [Compound 59]: 2.95; for `Cc1ccc(C(=NOCc2csc(NC(=O)CCCc3ccccc3)n2)n2nnnc2C)o1` [Compound 60]: 3.4.

Take `Cc1ccc(C(=NOCc2csc(NC(=O)CCc3ccccc3)n2)n2nnnc2C)o1` [Compound 61]: the LogP came to 3.15. Take `Cc1ccc(C(=NOCc2csc(NC(=O)C3CCCC3)n2)n2nnnc2C)o1` [Compound 62]: the LogP stood at 2.98. Molecule `Cc1ccc(C(=NOCc2csc(NC(=O)c3ccccc3)n2)n2nnnc2C)o1` [Compound 63] returned a LogP of 2.96. The LogP values of the last two molecules are within 0.2 log units of each other. The molecule `CCCCCC(=O)Nc1nc(CON=C(c2ccc(C)o2)n2nnnc2C)cs1` [Compound 64] came in with a LogP of 3.26. Consider `Cc1ccc(C(=NOCc2csc(NC(=O)Cc3ccccc3)n2)n2nnnc2C)o1` [Compound 65], for which the LogP was found to be 2.92. `Cc1ccc(C(=NOCc2csc(NC(=O)C(C)C)n2)n2nnnc2C)o1` [Compound 66] gave a LogP of 2.57. As for `Cc1ccc(C(=NOCc2csc(NC(=O)COCc3ccccc3)n2)n2nnnc2C)o1` [Compound 67], the LogP turned out to be 3.12. Turning to `Cc1ccc(C(=NOCc2csc(NC(=O)C3CC3)n2)n2nnnc2C)o1` [Compound 68], the LogP stood at 2.41. Same read-out and setting: the value for `C=CCC(=O)Nc1nc(CON=C(c2ccc(C)o2)n2nnnc2C)cs1` [Compound 69] was 2.42.

`COCCOCC(=O)Nc1nc(CON=C(c2ccc(C)o2)n2nnnc2C)cs1` [Compound 70] displayed a LogP of 2.23. The LogP values of the last two molecules are within 0.2 log units of each other. On to `COCCOC(=O)Nc1nc(CON=C(c2ccc(C)o2)n2nnnc2C)cs1` [Compound 71], for which the LogP is 2.37. The same measure, in the same setting: the value for `Cc1ccc(C(=NOCc2cccc(N)n2)n2nnnc2C)o1` [Compound 72] was 1; that for `COCCOC(=O)Nc1cccc(CON=C(c2ccc(C)o2)n2nnnc2C)n1` [Compound 73] was 2.53; that for `CCCCCOC(=O)Nc1cccc(CON=C(c2ccc(C)o2)n2nnnc2C)n1` [Compound 74] was 4.04. As to `Cc1ccc(C(=NOCc2cccc(NC(=O)OCCc3ccccc3)n2)n2nnnc2C)o1` [Compound 75], the lipophilicity (LogP) was determined as 3.78. `Cc1nnnn1C(=NOCc1csc(N)n1)c1cc(-c2ccccc2)c(Cl)s1` [Compound 76] had a LogP of 2.86. In turn, `Cc1nnnn1C(=NOCc1csc(NC(=O)C2CC2)n1)c1cc(-c2ccccc2)c(Cl)s1` [Compound 77] yielded a LogP of 4.03.
